Reference: patent publication US10294202B2, “Pyrrolidinones as herbicides” (FMC Corporation, priority 2013, dated 2019)

Legend:
morningglory = assay: Test C pre-/postemergence herbicide test; assay type: in vivo, Ipomoea coccinea
Summary of the method: (§1)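 Two application timings ran in parallel with identically formulated test chemicals (non-phytotoxic solvent, surfactant included): spray on seeded loam–sand soil, and spray on emerged plants 2 to 18 cm high. Evaluation at 13 to 15 days compared each species with controls, rated from 0 up to 100.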

barnyardgrass = assay: Test A pre-/postemergence herbicide test; assay type: in vivo, Echinochloa crus-galli
Summary of the method: (§2)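 Directed soil spray to seeded pots (preemergence) or spray onto one- to two-leaf seedlings 2–10 cm tall (postemergence); loam/sand substrate throughout. Evaluated visually after about 10 days against untreated plants, 0 = no effect, 100 = complete control.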

corn [1] = assay: Test A pre-/postemergence herbicide test; assay type: in vivo, Zea mays; conditions: Postemergence
Summary of the method: as §2

oilseed rape = assay: Test C pre-/postemergence herbicide test; assay type: in vivo, Brassica napus
Summary of the method: as §1

lambsquarters = assay: Test C pre-/postemergence herbicide test; assay type: in vivo, Chenopodium album
Summary of the method: as §1

nutsedge, yellow = assay: Test C pre-/postemergence herbicide test; assay type: in vivo, Cyperus esculentus
Summary of the method: as §1

pigweed = assay: Test A pre-/postemergence herbicide test; assay type: in vivo, Amaranthus retroflexus
Summary of the method: as §2

corn [2] = assay: Test C pre-/postemergence herbicide test; assay type: in vivo, Zea mays
Summary of the method: as §1

soybean = assay: Test C pre-/postemergence herbicide test; assay type: in vivo, Glycine max
Summary of the method: as §1

blackgrass = assay: Test C pre-/postemergence herbicide test; assay type: in vivo, Alopecurus myosuroides
Summary of the method: as §1

ducksalad = assay: Test B flooded paddy test; assay type: in vivo, Heteranthera limosa; conditions: 500 g ai/ha, Flood; scale of 0 to 100 where 0 is no effect and 100 is complete control
Summary of the method: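 Visual ratings from 0, meaning no effect, up to 100, meaning complete control, were made by comparison with untreated controls 13 to 15 days after treatment. Test compounds went straight into floodwater standing 3 cm over the soil of pots holding 2-leaf seedlings.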

[3] = Postemergence, 31 g ai/ha, scale 0 to 100 (0 no effect, 100 complete control)
[4] = Postemergence, 62 g ai/ha, scale 0 (no effect) to 100 (complete control)
[5] = Postemergence, 125 g ai/ha, scale 0 to 100 (0 no effect, 100 complete control)
[6] = Postemergence, 250 g ai/ha, scale 0 to 100 (0 no effect, 100 complete control)
[7] = Preemergence, 31 g ai/ha, scale 0 to 100, 0 is no effect and 100 is complete control
[8] = Preemergence, 62 g ai/ha, scale 0 to 100 (0 no effect, 100 complete control)
[9] = Preemergence, 125 g ai/ha, scale 0 to 100
[10] = Postemergence, 125 g ai/ha, visual rating on 0 to 100 scale (0 no effect, 100 complete control), approx. 10 days
[11] = Postemergence, 500 g ai/ha, 0 to 100 scale (0 no effect, 100 complete control)
[12] = Preemergence, 125 g ai/ha, 0 to 100 scale where 0 is no effect and 100 is complete control
[13] = Preemergence, 500 g ai/ha, visual rating on 0 to 100 scale (0 no effect, 100 complete control)

With `Cc1cccc(NC(=O)C2C(=O)NCC2c2cccc(C(F)(F)F)c2)c1` (centres unmarked) [Compound 317] the “Plant response rating, Morningglory” value (morningglory; [3]) was 0, the “Plant response rating, Morningglory” value (morningglory; [4]) was 0 and the “Plant response rating, Morningglory” value (morningglory; [5]) was 0. The “Plant response rating, Morningglory” value (morningglory; [6]) was 10, the “Morningglory plant response rating” value (morningglory; [7]) was 25 and the “Morningglory plant response rating” value (morningglory; [8]) was 0. The “Plant response rating, Morningglory” value (morningglory; [9]) was 0, the “Plant response rating (scale of 0 to 100), Morningglory” value (morningglory; Preemergence, 250 g ai/ha) was 0 and the “Plant response rating, Barnyardgrass” value (barnyardgrass; [10]) was 80. The “Plant response rating, Barnyardgrass” value (barnyardgrass; [11]) was 90, the “Plant response rating, Barnyardgrass” value (barnyardgrass; [12]) was 90 and the “Barnyardgrass plant response rating” value (barnyardgrass; [13]) was 90. For the same compound, the “Plant response rating, Corn” value (corn [1]; 125 g ai/ha, visual rating on 0 to 100 scale (0 no effect, 100 complete control), approx. 10 days) was 0, the “Plant response rating, Corn” value (corn [1]; 500 g ai/ha, 0 to 100 scale (0 no effect, 100 complete control)) was 20 and the “Plant response rating, Oilseed Rape” value (oilseed rape; [3]) was 0. For the same compound, the “Plant response rating, Oilseed Rape” value (oilseed rape; [4]) was 0, the “Plant response rating, Oilseed Rape” value (oilseed rape; [5]) was 0 and the “Plant response rating, Oilseed Rape” value (oilseed rape; [6]) was 0. The “Oilseed Rape plant response rating” value (oilseed rape; [7]) was 0, the “Oilseed Rape plant response rating” value (oilseed rape; [8]) was 0 and the “Plant response rating, Oilseed Rape” value (oilseed rape; [9]) was 0. The “Plant response rating (scale of 0 to 100), Oilseed Rape” value (oilseed rape; Preemergence, 250 g ai/ha) was 0, the “Plant response rating, Lambsquarters” value (lambsquarters; [3]) was 0 and the “Plant response rating, Lambsquarters” value (lambsquarters; [4]) was 0. For the same compound, the “Plant response rating, Lambsquarters” value (lambsquarters; [5]) was 25, the “Plant response rating, Lambsquarters” value (lambsquarters; [6]) was 25 and the “Lambsquarters plant response rating” value (lambsquarters; [7]) was 0. The “Lambsquarters plant response rating” value (lambsquarters; [8]) was 0, the “Plant response rating, Lambsquarters” value (lambsquarters; [9]) was 0 and the “Plant response rating (scale of 0 to 100), Lambsquarters” value (lambsquarters; Preemergence, 250 g ai/ha) was 10. For the same compound, the “Plant response rating, Nutsedge, Yellow” value (nutsedge, yellow; [3]) was 0, the “Plant response rating, Nutsedge, Yellow” value (nutsedge, yellow; [4]) was 0 and the “Plant response rating, Nutsedge, Yellow” value (nutsedge, yellow; [5]) was 0. The “Plant response rating, Nutsedge, Yellow” value (nutsedge, yellow; [6]) was 0, the “Nutsedge, Yellow plant response rating” value (nutsedge, yellow; [7]) was 0 and the “Nutsedge, Yellow plant response rating” value (nutsedge, yellow; [8]) was 0. The “Plant response rating, Nutsedge, Yellow” value (nutsedge, yellow; [9]) was 20, the “Plant response rating (scale of 0 to 100), Nutsedge, Yellow” value (nutsedge, yellow; Preemergence, 250 g ai/ha) was 70 and the “Plant response rating, Pigweed” value (pigweed; [10]) was 0. For the same compound, the “Plant response rating, Pigweed” value (pigweed; [11]) was 0, the “Plant response rating, Pigweed” value (pigweed; [12]) was 0 and the “Pigweed plant response rating” value (pigweed; [13]) was 0. The “Plant response rating, Corn” value (corn [2]; [3]) was 0, the “Plant response rating, Corn” value (corn [2]; [4]) was 0 and the “Plant response rating, Corn” value (corn [2]; [5]) was 0. For the same compound, the “Plant response rating, Corn” value (corn [2]; [6]) was 0, the “Corn plant response rating” value (corn [2]; [7]) was 0 and the “Corn plant response rating” value (corn [2]; [8]) was 0. The “Plant response rating, Corn” value (corn [2]; [9]) was 25, the “Plant response rating (scale of 0 to 100), Corn” value (corn [2]; Preemergence, 250 g ai/ha) was 30 and the “Plant response rating, Soybean” value (soybean; [3]) was 0. For the same compound, the “Plant response rating, Soybean” value (soybean; [4]) was 0, the “Plant response rating, Soybean” value (soybean; [5]) was 0 and the “Plant response rating, Soybean” value (soybean; [6]) was 0. For the same compound, the “Soybean plant response rating” value (soybean; [8]) was 0, the “Plant response rating, Soybean” value (soybean; [9]) was 0 and the “Plant response rating, Blackgrass” value (blackgrass; [3]) was 0. For the same compound, the “Plant response rating, Blackgrass” value (blackgrass; [4]) was 0, the “Plant response rating, Blackgrass” value (blackgrass; [5]) was 0 and the “Plant response rating, Blackgrass” value (blackgrass; [6]) was 0. The “Blackgrass plant response rating” value (blackgrass; [7]) was 0, the “Blackgrass plant response rating” value (blackgrass; [8]) was 40 and the “Plant response rating, Blackgrass” value (blackgrass; [9]) was 50. For the same compound, the “Plant response rating (scale of 0 to 100), Blackgrass” value (blackgrass; Preemergence, 250 g ai/ha) was 50 and the “Plant response rating, Ducksalad” value (ducksalad) was 80.
